# Measured values as given in patent publication US20180111893A1, “POLYCATIONIC AMPHIPHILES AND POLYMERS THEREOF AS ANTIMICROBIAL AGENTS AND METHODS USING SAME” (Temple University-Of The Commonwealth System of Higher …, priority 2015, published 2018).
# Key:
# [1] = system: Staphylococcus aureus (SA; MSSA SH1000); assay: Minimum inhibitory concentration (MIC); assay type: cell-based; parameters: MIC MSSA: unit not given here
# Protocol: (§1) As used herein, the term “minimum inhibitory concentration (MIC)” refers to the lowest concentration of an antimicrobial agent that will inhibit the visible growth of a microorganism after overnight incubation. MIC values against bacteria, for example, the Gram-positive Staphylococcus aureus and Enterococcus faecalis and the Gram-negative Escherichia coli and Pseudomonas aeruginosa were determined by standard methods. See also P. A. Wayne, Methods for Dilution Antimicrobial Tests for Bacteria that Grow Aerobically; Approved Standard, Ninth Edition, 2012, CLSI Document M07-A9, Vol. 32 No. 2, which is incorporated by reference herein in its entirety.
# (§2) Compounds were serially diluted two-fold from a 10% DMSO/aqueous stock solution to yield twelve test concentrations. Overnight S. aureus, E. faecalis, E. coli, P. aeruginosa, CA-MRSA, and HA-MRSA cultures diluted to ca. 10^6 cfu/mL in Mueller-Hinton media and 100 μL were inoculated into each well of a U-bottom 96-well plate (BD Biosciences, BD351177) containing 100 μL of compound solution. Plates were incubated statically at 37° C. for 72 hours upon which time wells were evaluated visually for bacterial growth. The MIC was determined as the lowest concentration of compound resulting in no bacterial growth visible to the naked eye, based on the majority of three independent experiments. Positive and negative DMSO/aqueous solution and media controls were conducted for each trial. See Peng et al., 2011, Chem. Comm. 47:4896-4898.
# as §2, with “trial.” for “trial. See Peng et al., 2011, Chem. Comm. 47:4896-4898.”
# [2] = system: Staphylococcus aureus (MSSA) biofilms; assay: Minimum biofilm eradication concentration (MBEC), regrowth assay; assay type: cell-based; parameters: MBEC MSSA: unit not given here; conditions: for MBEC MSSA: Table 5, regrowth OD under 0.1 (italics: OD < 0.5)
# Protocol: (§3) A regrowth assay was used to establish the MBEC of a compound to evaluate the antibiofilm activity. See also H. Ceri, M. Olson, D. Morck, D. Storey, R. Read, A. Buret, B. Olson, Methods Enzymol. 2001, 337, 377, which is incorporated by reference herein in its entirety.
# (§4) To each well of a flat-bottomed 96-well plate (Corning 3370), 8 μL of overnight bacterial culture was brought to a volume of 200 μL with fresh media (BHI for MSSA and MRSA). Plates were incubated statically for 24 hours at 37° C. to establish biofilms. After 24 hours, the wells were carefully emptied by inverting the plate and gently shaking. A pre-mixed solution of media and compound stock solution was added to each well and plates were incubated at 37° C. 16 hours after pre-established biofilms were treated with compound, the media from each well was removed, biofilms were washed three times with 200 μL PBS to remove planktonic cells, and biofilms were incubated overnight at 37° C. in 200 μL of fresh media to allow any viable cells to continue growing. The wells were then vigorously pipetted to resuspend the biofilm cells and the OD at 595 nm was measured using a plate reader (POLARstar Omega, BMG Labtech). Biofilms reaching a final OD of less than 0.1 were considered eradicated and the lowest concentration of antibiotic corresponded to the MBEC. Four replicates were completed for each concentration of compound as well as positive and negative controls.
# [3] = system: Escherichia coli (MC4100); assay: Minimum inhibitory concentration (MIC); assay type: cell-based
# Protocol: as §1, §2
# as §2, with “trial.” for “trial. See Peng et al., 2011, Chem. Comm. 47:4896-4898.”
# [4] = system: Pseudomonas aeruginosa (PAO1); assay: Minimum inhibitory concentration (MIC); assay type: cell-based
# Protocol: as §1, §2
# as §2, with “trial.” for “trial. See Peng et al., 2011, Chem. Comm. 47:4896-4898.”
# [5] = system: Enterococcus faecalis (OG1RF); assay: Minimum inhibitory concentration (MIC); assay type: cell-based; conditions: Table 1
# Protocol: as §1, §2
# as §2, with “trial.” for “trial. See Peng et al., 2011, Chem. Comm. 47:4896-4898.”
# [6] = system: Enterococcus faecalis biofilms; assay: Minimum biofilm eradication concentration (MBEC), regrowth assay; assay type: cell-based; conditions: Table 1
# Source text: as §3
# [7] = system: six bacteria (SA, HA-MRSA, CA-MRSA, EF, EC, PA); assay: MIC against the panel of bacteria tested; assay type: cell-based; conditions: for antimicrobial activity: quinine- and nicotine-derived QACs, in words
# Protocol: as §1
# The complete set of MIC values against six bacteria [Staphylococcus aureus (SA), hospital-acquired methicillin-resistant SA (HA-MRSA), community-acquired methicillin-resistant SA (CA-MRSA), Enterococcus faecalis (EF), Escherichia coli (EC), and Pseudomonas aeruginosa (PA)] is presented in Table 3, wherein multiQACs are grouped with their monoQAC counterparts. The dye-based QACs with greatest inhibition of the complete range of Gram-positive and Gram-negative bacteria featured bis- or tris-quaternization, with the optimal alkyl total ranging from 17-24 carbons. For example, comparison of two biscationic series -LMG-n,1 and LMG-n,n—evaluates the effect of total alkyl chain length in retention of efficacy against the more challenging CA-MRSA and the Gram-negative strains EC and PA.
# as §2
# [8] = system: MRSA biofilms (S. aureus USA300-0114); assay: Minimum biofilm eradication concentration (MBEC), regrowth assay; assay type: cell-based, Staphylococcus aureus; parameters: MBEC MRSA: unit not given here; conditions: for MBEC MRSA: Table 5, regrowth OD under 0.1 (italics: OD < 0.5)
# Protocol: as §3, §4
# [9] = system: community-acquired methicillin-resistant Staphylococcus aureus CA-MRSA (USA300-0114); assay: Minimum inhibitory concentration (MIC); assay type: cell-based; parameters: MIC MRSA: unit not given here; conditions: Table 5; S. aureus USA300-0114
# Protocol: as §1, §2
# as §2, with “trial.” for “trial. See Peng et al., 2011, Chem. Comm. 47:4896-4898.”
# [10] = system: red blood cells; assay type: cell-based, sheep
# Protocol: To date, synthesized compounds have been evaluated against planktonic bacteria (E. coli, S. aureus, P. aeruginosa, E. facaelis) and bacterial biofilms (E. facaelis, S. aureus, MRSA); new compounds are similarly assessed. All compounds are also evaluated via a hemolysis assay to assess their ability to lyse red blood cells (RBC) (Nagamune et al., 2000, Toxicology in Vitro 14:139-147). The assay is conducted following a known protocol to determine the concentration of compound that causes 20% of RBCs to be lysed. […] All compounds are benchmarked against three commercial antiseptics—benzalkonium chloride, DDAC, and CHX (FIG. 1).
# Hemolysis assays were performed according to a known method (Peng et al., 2011, Chem. Comm. 47:4896-4898). Defibrinated sheep blood was purchased from Hemostat Labs (DSB030). Compounds representative of each class were serially diluted in sterile PBS from stock solutions and incubated with resuspended blood cells. The OD of the final suspensions were measured directly using plate reader. TritonX (1% by volume) served as a positive control (100% lysis marker) and sterile PBS served as a negative control (0% lysis marker).
compound,measurement,setting,value
"CCCCCCCCCCCC[N+](C)(C)CCN(C)CCN(C)CC[N+](C)(C)CCCCCCCCCCCC [N4-12,0,0,12]",MIC v SA,[1]; Table 1,1 µM
same,MBEC v SA,[2]; Table 1,50 µM
same,MIC v EC,[3]; Table 1,1 µM
same,MIC v PA,[4]; Table 1,2 µM
same,MIC v EF,[5],1 µM
same,MBEC v EF,[6],75 µM
"C[n+]1cccc([C@@H]2CCC[N+]2(C)C)c1 [N-1,1]",antimicrobial activity,[7],essentially no antimicrobial activity
"CCCCCCCCCCC[N+](C)(C)CCN(CC[N+](C)(C)CCCCCCCCCCC)CC[N+](C)(C)CCCCCCCCCCC [T-11,11,11]",MIC MSSA,"[1]; Table 5, S. aureus SH1000",0.5
same,MBEC MSSA,[2],200
same,MIC EC,"[3]; Table 5, E. coli MC4100",1 mm
same,MIC PA,"[4]; Table 5, P. aeruginosa PAO1",2 mm
same,MBEC MRSA,[8],>200
same,MIC MRSA,[9],1
"CCCCCCCCCCCCCCCCCC[n+]1cccc([C@@H]2CCC[N+]2(C)C)c1.[Br-].[I-] [N-18,1]",low micromolar activity,[7]; all bacteria except for P. aeruginosa,4 µM
"CCCCCCCCCCCCCCCCCC[N+]1(C)CC[N+](C)(C)CC[N+](C)(C)CC1 [C-18,1,1]",MBEC MSSA,[2],>200
same,MBEC MRSA,[8],>200
"CCCCCCCCCCCCCCCC[N+]1(C)CCN(C)CCN(C)CC1.[Br-] [C-16,0,0]",MBEC MSSA,[2],>200
same,MBEC MRSA,[8],>200
"C=CC1C[N+]2(CCCCCCCCCCCCCC)CCC1C[C@H]2[C@@H](O)c1ccnc2ccc(OC)cc12.[Br-] (stereo partly drawn) [Q-14,0]",antimicrobial activity,[7],strongest activity
"C=CC1C[N+]2(C)CCC1C[C@H]2[C@@H](O)c1cc[n+](C)c2ccc(OC)cc12 (stereo partly drawn) [Q-1,1]",antimicrobial activity,[7],essentially no antimicrobial activity
"CCCCCCCCCCC[N+](C)(C)CCN1CC[N+](C)(CCCCCCCCCCC)CC1 [P-11,0,11]",MBEC MSSA,[2],100
same,MBEC MRSA,[8],200
CCCCCCCCCCCCCCCC[n+]1ccccc1 [Cetyl pyridinium chloride],Lysis20,[10]; concentration at which 20% of RBCs are lysed,8 µM
same,TI MRSA,"[10]; therapeutic index, Lysis20/MIC v MRSA",0.5
same,TI SA,"[10]; therapeutic index, Lysis20/MIC v SA",16
same,MBEC v MRSA,"[8]; Table 2, pre-formed MRSA biofilms",200 µM
"CCCCCCCCCC[N+](C)(C)CCCN(CC[N+](C)(C)CCCCCCCCCC)CC[N+](C)(C)CCCCCCCCCC [T-10,10,10]",MBEC MSSA,[2],100
same,MBEC MRSA,[8],200
"CCCCCCCCCCCC[N+](C)(C)CCN1CC[N+](C)(CCCCCCCCCCCC)CC1 [P-12,0,12]",MBEC MSSA,[2],200
same,MBEC MRSA,[8],200
